Data as given in PubChem BioAssay (NCI).
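96-well plates; 48 h exposure; 5 concentrations. Endpoints by linear interpolation between flanking doses. Not reached: highest tested concentration assigned. TGI: concentration producing complete growth inhibition.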

Columns and labels:
Test in all cases: NCI-60 cell line screen, 48 h
KM20L2 colon = test system: KM20L2 colon
MALME-3M melanoma = test system: MALME-3M melanoma
TK-10 renal = test system: TK-10 renal
IGROV1 ovarian = test system: IGROV1 ovarian
SN12C renal = test system: SN12C renal
A498 renal = test system: A498 renal
A549 NSCLC = test system: A549 NSCLC
COLO 205 colon = test system: COLO 205 colon
SW-620 colon = test system: SW-620 colon
UACC-257 melanoma = test system: UACC-257 melanoma
NCI-H23 lung = test system: NCI-H23 lung
UACC-62 melanoma = test system: UACC-62 melanoma
SK-MEL-28 melanoma = test system: SK-MEL-28 melanoma
OVCAR-4 ovarian = test system: OVCAR-4 ovarian
OVCAR-5 ovarian = test system: OVCAR-5 ovarian
XF 498 CNS = test system: XF 498 CNS
MOLT-4 leukemia = test system: MOLT-4 leukemia
K-562 leukemia = test system: K-562 leukemia
SF-295 CNS = test system: SF-295 CNS
DMS 114 small cell lung = test system: DMS 114 small cell lung
HOP-62 NSCLC = test system: HOP-62 NSCLC
SNB-19 CNS = test system: SNB-19 CNS
M14 melanoma = test system: M14 melanoma
SF-268 CNS = test system: SF-268 CNS
RPMI-8226 leukemia = test system: RPMI-8226 leukemia
HCT-116 colon = test system: HCT-116 colon
NCI-H460 lung = test system: NCI-H460 lung
U251 CNS = test system: U251 CNS
HL-60(TB) leukemia = test system: HL-60(TB) leukemia
CCRF-CEM leukemia = test system: CCRF-CEM leukemia
OVCAR-8 ovarian = test system: OVCAR-8 ovarian
KM12 colon = test system: KM12 colon
EKVX NSCLC = test system: EKVX NSCLC
ACHN renal = test system: ACHN renal
M19-MEL melanoma = test system: M19-MEL melanoma
DLD-1 colon = test system: DLD-1 colon
SK-MEL-5 melanoma = test system: SK-MEL-5 melanoma
HT29 colon = test system: HT29 colon
SF-539 CNS = test system: SF-539 CNS
HOP-92 NSCLC = test system: HOP-92 NSCLC
SK-MEL-2 melanoma = test system: SK-MEL-2 melanoma
SNB-75 CNS = test system: SNB-75 CNS
HCC-2998 colon = test system: HCC-2998 colon
OVCAR-3 ovarian = test system: OVCAR-3 ovarian
LXFL 529 NSCLC = test system: LXFL 529 NSCLC
UO-31 renal = test system: UO-31 renal
NCI-H522 lung = test system: NCI-H522 lung
CAKI-1 renal = test system: CAKI-1 renal
SK-OV-3 ovarian = test system: SK-OV-3 ovarian
RXF 393 renal = test system: RXF 393 renal
HCT-15 colon = test system: HCT-15 colon
DMS 273 small cell lung = test system: DMS 273 small cell lung
NCI-H226 lung = test system: NCI-H226 lung
786-0 renal = test system: 786-0 renal
LOX IMVI melanoma = test system: LOX IMVI melanoma

Measured: TGI

CCNc1cnc2c(n1)c(=O)n(C)c(=O)n2C
not listed: NCI-H226 lung | 786-0 renal | LOX IMVI melanoma
> 100 µM: all other assays above

CC(C)NC(C)C(C)c1ccccc1 (stereo not drawn)
not listed: OVCAR-5 ovarian | HL-60(TB) leukemia | HOP-92 NSCLC | HCT-15 colon
> 100 µM: all other assays above
